Test results: patent publication US11395486B2, “Antibacterial and antifungal composition” (ADEKA CORPORATION, priority 2017, dated 2022)

Test: Evaluation of solution appearance
Format: physicochemical
Details: solution adjusted to the five-kind MIC, 4 mL tube, allowed to stand still, visually observed
Method: […] of each of the test microbial liquids was dispensed onto a microplate, and further, […] of each of antibacterial and antifungal solutions, in which the antibacterial and antifungal compositions prepared in Examples 1 and 2 and Comparative Examples 1 to 11 were adjusted to various concentrations with a culture medium, was added to the test microbial liquid, followed by stirring, to obtain a mixed solution. In this case, the pH of each of the antibacterial and antifungal solutions was from 6.89 to 7.24. Next, in each of the mixed solutions, culture was performed as follows. The bacterium mixed solution was cultured in a constant-temperature reservoir at 37° C. for 24 hours. The yeast mixed solution was cultured in the constant-temperature reservoir at 25° C. for 3 days. The mold mixed solution was cultured in the constant-temperature reservoir at 25° C. for 1 week. […] In addition, the appearance of the antibacterial and antifungal solution was evaluated as follows. […] The appearance of the solution was visually observed and evaluated in accordance with the following criteria. […]

SMILES	Evaluation of solution appearance
OCc1ccccc1 [Comparative Example 6, benzyl alcohol]	◯
O=C([O-])c1ccccc1.[Na+] [compound 7, sodium benzoate]	◯
